Experimental data as given in US6706739B2, “Imidazolidinone compounds” (National Health Research Institute, priority 2001, dated 2004).
Like-named read-outs stand apart in the source and are kept apart here.

Tests used:
Assay type in all cases: cell-based
coxsackievirus A9 = assay: Plaque reduction assay, coxsackievirus A9
enterovirus 71 = assay: Plaque reduction assay, enterovirus 71
coxsackievirus A24 = assay: Plaque reduction assay, coxsackievirus A24
[1] = plaque reduction assay, vero cells, 35° C., 96 hours

CC1CN(CCCCCCOc2ccc(Cl)cc2)C(=O)N1c1ccncc1 (stereo not drawn) [Compound 21, 1-[6-(4-chlorophenoxy)hexyl]-4-methyl-3-(4-pyridyl)-2-imidazolidinone]
showed antiviral activity: antiviral activity against enteroviruses, in particular coxsackievirus A9 (coxsackievirus A9; [1]) | antiviral activity against enteroviruses, in particular enterovirus 71 (enterovirus 71; [1]) | antiviral activity against enteroviruses, in particular coxsackievirus A24 (coxsackievirus A24; [1])

O=C1N(CCCCCCOc2ccc(Br)cc2)CCN1c1ccncc1 [Compound 17, 1-[6-(4-bromophenoxy)hexyl]-3-(4-pyridyl)-2-imidazolidinone]
showed antiviral activity: antiviral activity against enteroviruses, in particular coxsackievirus A9 (coxsackievirus A9; [1]) | antiviral activity against enteroviruses, in particular enterovirus 71 (enterovirus 71; [1]) | antiviral activity against enteroviruses, in particular coxsackievirus A24 (coxsackievirus A24; [1])

O=C1N(CCCCCCCOc2ccc(Br)cc2)CCN1c1ccncc1 [Compound 50, 1-[7-(4-bromophenoxy)heptyl]-3-(4-pyridyl)-2-imidazolidinone]
showed antiviral activity: antiviral activity against enteroviruses, in particular coxsackievirus A9 (coxsackievirus A9; [1]) | antiviral activity against enteroviruses, in particular enterovirus 71 (enterovirus 71; [1]) | antiviral activity against enteroviruses, in particular coxsackievirus A24 (coxsackievirus A24; [1])

O=C1N(CCCCCCCOc2ccc(Cl)cc2)CCN1c1ccncc1 [Compound 2, 1-[7-(4-chlorophenoxy)heptyl]-3-(4-pyridyl)-2-imidazolidinone]
showed antiviral activity: antiviral activity against enteroviruses, in particular coxsackievirus A9 (coxsackievirus A9; [1]) | antiviral activity against enteroviruses, in particular enterovirus 71 (enterovirus 71; [1]) | antiviral activity against enteroviruses, in particular coxsackievirus A24 (coxsackievirus A24; [1])

O=C1N(CCCCCCOc2ccc(Br)cc2)CCN1c1cccnc1 [Compound 33, 1-[6-(4-bromophenoxy)hexyl]-3-(3-pyridyl)-2-imidazolidinone]
showed antiviral activity: antiviral activity against enteroviruses, in particular coxsackievirus A9 (coxsackievirus A9; [1]) | antiviral activity against enteroviruses, in particular enterovirus 71 (enterovirus 71; [1]) | antiviral activity against enteroviruses, in particular coxsackievirus A24 (coxsackievirus A24; [1])

O=C1N(CCCCCCOc2ccc(Cl)cc2)CCN1c1ccncc1 [Compound 24, 1-[6-(4-chlorophenoxy)hexyl]-3-(4-pyridyl)-2-imidazolidinone]
showed antiviral activity: antiviral activity against enteroviruses, in particular coxsackievirus A9 (coxsackievirus A9; [1]) | antiviral activity against enteroviruses, in particular enterovirus 71 (enterovirus 71; [1]) | antiviral activity against enteroviruses, in particular coxsackievirus A24 (coxsackievirus A24; [1])

O=C1N(CCCCCOc2ccc(Br)cc2)CCN1c1ccncc1 [Compound 52, 1-[5-(4-bromophenoxy)pentyl]-3-(4-pyridyl)-2-imidazolidinone]
showed antiviral activity: antiviral activity against enteroviruses, in particular coxsackievirus A9 (coxsackievirus A9; [1]) | antiviral activity against enteroviruses, in particular enterovirus 71 (enterovirus 71; [1]) | antiviral activity against enteroviruses, in particular coxsackievirus A24 (coxsackievirus A24; [1])

O=C1N(CCCCCOCCOc2ccc(Br)cc2)CCN1c1ccncc1 [Compound 47, 1-(5-[2-(4-bromophenoxy)ethoxy]pentyl)-3-(4-pyridyl)-2-imidazolidinone]
showed antiviral activity: antiviral activity against enteroviruses, in particular coxsackievirus A9 (coxsackievirus A9; [1]) | antiviral activity against enteroviruses, in particular enterovirus 71 (enterovirus 71; [1]) | antiviral activity against enteroviruses, in particular coxsackievirus A24 (coxsackievirus A24; [1])

O=C1N(CCCCCOc2ccc(-c3ccc([N+](=O)[O-])cc3)cc2)CCN1c1ccncc1 [Compound 76, 1-[5-(4′-nitro-biphenyl-4-yloxy)pentyl]-3-pyridin-4-yl-imidazolidin-2-one]
showed antiviral activity: antiviral activity against enteroviruses, in particular coxsackievirus A9 (coxsackievirus A9; [1]) | antiviral activity against enteroviruses, in particular enterovirus 71 (enterovirus 71; [1]) | antiviral activity against enteroviruses, in particular coxsackievirus A24 (coxsackievirus A24; [1])

O=C1N(CCCCCOc2ccc(Cl)cc2)CCN1c1ccncc1 [Compound 28, 1-[5-(4-chlorophenoxy)pentyl]-3-(4-pyridyl)-2-imidazolidinone]
showed antiviral activity: antiviral activity against enteroviruses, in particular coxsackievirus A9 (coxsackievirus A9; [1]) | antiviral activity against enteroviruses, in particular enterovirus 71 (enterovirus 71; [1]) | antiviral activity against enteroviruses, in particular coxsackievirus A24 (coxsackievirus A24; [1])

COc1ccc(-c2ccc(OCCCCCN3CCN(c4ccncc4)C3=O)cc2)cc1 [Compound 74, 1-[5-(4′-methoxy-biphenyl-4-yloxy)pentyl]-3-pyridin-4-yl-imidazolidin-2-one]
showed antiviral activity: antiviral activity against enteroviruses, in particular coxsackievirus A9 (coxsackievirus A9; [1]) | antiviral activity against enteroviruses, in particular enterovirus 71 (enterovirus 71; [1]) | antiviral activity against enteroviruses, in particular coxsackievirus A24 (coxsackievirus A24; [1])

O=C1N(CCCCCCOc2ccc(C(F)(F)F)cc2)CCN1c1cccnc1 [Compound 42, 1-(3-pyridyl)-3-(6-[4-(trifluoromethyl)phenoxy]hexyl)-2-imidazolidinone]
showed antiviral activity: antiviral activity against enteroviruses, in particular coxsackievirus A9 (coxsackievirus A9; [1]) | antiviral activity against enteroviruses, in particular enterovirus 71 (enterovirus 71; [1]) | antiviral activity against enteroviruses, in particular coxsackievirus A24 (coxsackievirus A24; [1])

O=C1N(CCCCCCOc2ccc(C(F)(F)F)cc2)CCN1c1ccncc1 [Compound 1, 1-(4-pyridyl)-3-(6-[4-(trifluoromethyl)phenoxy]hexyl)-2-imidazolidinone]
showed antiviral activity: antiviral activity against enteroviruses, in particular coxsackievirus A9 (coxsackievirus A9; [1]) | antiviral activity against enteroviruses, in particular enterovirus 71 (enterovirus 71; [1]) | antiviral activity against enteroviruses, in particular coxsackievirus A24 (coxsackievirus A24; [1])

O=C1N(CCCCCCCOc2ccc(Cl)cc2)CCN1c1cccnc1 [Compound 39, 1-[7-(4-chlorophenoxy)heptyl]-3-(3-pyridyl)-2-imidazolidinone]
showed antiviral activity: antiviral activity against enteroviruses, in particular coxsackievirus A9 (coxsackievirus A9; [1]) | antiviral activity against enteroviruses, in particular enterovirus 71 (enterovirus 71; [1]) | antiviral activity against enteroviruses, in particular coxsackievirus A24 (coxsackievirus A24; [1])

O=C1N(CCCCOCCOc2ccc(Br)cc2)CCN1c1ccncc1 [Compound 34, 1-4-[2-(4-bromophenoxy)ethoxy]butyl-3-(4-pyridyl)-2-imidazolidinone]
showed antiviral activity: antiviral activity against enteroviruses, in particular coxsackievirus A9 (coxsackievirus A9; [1]) | antiviral activity against enteroviruses, in particular enterovirus 71 (enterovirus 71; [1]) | antiviral activity against enteroviruses, in particular coxsackievirus A24 (coxsackievirus A24; [1])

O=C1N(CCCCCOc2ccc(-c3ccc(Cl)cc3)cc2)CCN1c1ccncc1 [Compound 73, 1-[6-(4-(4′-chloro)biphenyl-4-yloxy)pentyl]-3-pyridin-4-yl-imidazolidin-2-one]
showed antiviral activity: antiviral activity against enteroviruses, in particular coxsackievirus A9 (coxsackievirus A9) | antiviral activity against enteroviruses, in particular enterovirus 71 (enterovirus 71) | antiviral activity against enteroviruses, in particular coxsackievirus A24 (coxsackievirus A24)

O=C1N(CCCCCCOc2ccc(I)cc2)CCN1c1ccncc1 [Compound 61, 1-[6-(4-iodophenoxy)hexyl]-3-(4-pyridyl)-2-imidazolidinone]
showed antiviral activity: antiviral activity against enteroviruses, in particular coxsackievirus A9 (coxsackievirus A9; [1]) | antiviral activity against enteroviruses, in particular enterovirus 71 (enterovirus 71; [1]) | antiviral activity against enteroviruses, in particular coxsackievirus A24 (coxsackievirus A24; [1])
